Laboratory results taken from US20230190687A1, “SODIUM BUTYRATE FOR USE IN THE PREVENTION OR TREATMENT OF RHINOVIRUS INFECTION” (priority 2020, published 2023).

Key:
HRV1B Rhinovirus = experiment: Conditioned media of treated THP-1 macrophages incubated with HRV1B Rhinovirus; measurable live virus titrated; format: cell-based; settings: then incubated with HRV1B, compared with control (distilled water), n=3
Protocol: With reference to FIG. 1, an experiment was carried out to treat leukocytes (the human monocytic THP-1 macrophage cell line differentiated into macrophages) with sodium butyrate, Vitamin D, or with a combination of sodium butyrate and Vitamin D.
The leukocyte cells were incubated for a period of time to allow them to release proteins into the surrounding cell culture media (referred to as ‘conditioned media’). The conditioned media was then incubated with HRV1B Rhinovirus. The leukocyte cells were incubated with a solution comprising 0.5 mM sodium butyrate, a solution comprising 0.5 mM Vitamin D, and with a solution comprising both 0.5 mM sodium butyrate and 0.5 mM Vitamin D.
The data shown is an average of n=3 independent biological replicates (the titration is an average of ten fold reductions quantified over the three replicates).

Rhinovirus = settings: exogenous LL-37, cell models; Casanova et al 2020; cited from earlier work
influenza infection = settings: exogenous LL-37, mouse models of influenza infection; Barlow et al 2011; cited from earlier work

Compound: CCCC(=O)[O-].[Na+] [sodium butyrate]
- reduction in measurable live virus (HRV1B Rhinovirus; conditioned media of THP-1 macrophages incubated with 0.5 mM sodium butyrate): 75-80%

Compound: LL-37: a human member of the cathelicidin family (LLGDFFRKSKEKIGKEFKRIVQRIKDFLRNLVPRTES; Antibacterial peptide LL-37; UniProt P49913 134-170, looked up)
- Rhinovirus induced inflammatory cytokine release (Rhinovirus): reduce Rhinovirus induced inflammatory cytokine release
- inflammation (influenza infection): decrease inflammation
- survival rates (influenza infection): enhanced survival rates

Compound: Vitamin D
- reduction in measureable live virus (in words) (HRV1B Rhinovirus; conditioned media of THP-1 macrophages incubated with 0.5 mM Vitamin D, or 0.5 mM sodium butyrate and 0.5 mM Vitamin D): significant reduction
